Assays:
Experiment in all cases: biochemical
Type in all cases: binding
[1] = target: T1, panel of 442 kinases (Homo sapiens, UniProt P10721, D816V); conditions: kinase KIT(D816V), second of two lines so named (r207); for remaining activity at 1 µM: read-out: % of control at 1 µM
T1 construct: purchased Ambit Biosciences (scanMAXX KINOMEscan)

[2] = target: T2, panel of 442 kinases (Plasmodium falciparum, UniProt P62344); conditions: kinase PFCDPK1(P.falciparum); for remaining activity at 1 µM: read-out: % of control at 1 µM; for remaining activity at 10 µM: read-out: % of control at 10 µM
T2 construct: purchased Ambit Biosciences (scanMAXX KINOMEscan)
T2 sequence (P62344 whole entry): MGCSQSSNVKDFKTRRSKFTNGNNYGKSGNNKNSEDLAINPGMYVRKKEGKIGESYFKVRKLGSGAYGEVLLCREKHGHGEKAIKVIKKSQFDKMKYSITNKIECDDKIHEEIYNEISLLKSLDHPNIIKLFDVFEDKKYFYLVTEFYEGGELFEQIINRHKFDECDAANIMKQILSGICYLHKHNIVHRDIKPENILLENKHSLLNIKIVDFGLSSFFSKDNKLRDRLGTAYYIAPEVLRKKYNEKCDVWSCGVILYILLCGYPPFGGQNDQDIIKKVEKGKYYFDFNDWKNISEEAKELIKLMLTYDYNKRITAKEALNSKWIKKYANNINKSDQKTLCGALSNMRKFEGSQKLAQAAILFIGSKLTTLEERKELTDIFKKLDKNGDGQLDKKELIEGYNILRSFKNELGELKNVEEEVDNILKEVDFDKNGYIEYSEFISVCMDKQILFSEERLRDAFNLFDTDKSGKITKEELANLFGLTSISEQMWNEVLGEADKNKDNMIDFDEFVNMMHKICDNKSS

[3] = target: T3, panel of 442 kinases (Homo sapiens, UniProt P80192); conditions: kinase MLK1; for remaining activity at 1 µM: read-out: % of control at 1 µM
T3 construct: purchased Ambit Biosciences (scanMAXX KINOMEscan)
T3 sequence (P80192 whole entry): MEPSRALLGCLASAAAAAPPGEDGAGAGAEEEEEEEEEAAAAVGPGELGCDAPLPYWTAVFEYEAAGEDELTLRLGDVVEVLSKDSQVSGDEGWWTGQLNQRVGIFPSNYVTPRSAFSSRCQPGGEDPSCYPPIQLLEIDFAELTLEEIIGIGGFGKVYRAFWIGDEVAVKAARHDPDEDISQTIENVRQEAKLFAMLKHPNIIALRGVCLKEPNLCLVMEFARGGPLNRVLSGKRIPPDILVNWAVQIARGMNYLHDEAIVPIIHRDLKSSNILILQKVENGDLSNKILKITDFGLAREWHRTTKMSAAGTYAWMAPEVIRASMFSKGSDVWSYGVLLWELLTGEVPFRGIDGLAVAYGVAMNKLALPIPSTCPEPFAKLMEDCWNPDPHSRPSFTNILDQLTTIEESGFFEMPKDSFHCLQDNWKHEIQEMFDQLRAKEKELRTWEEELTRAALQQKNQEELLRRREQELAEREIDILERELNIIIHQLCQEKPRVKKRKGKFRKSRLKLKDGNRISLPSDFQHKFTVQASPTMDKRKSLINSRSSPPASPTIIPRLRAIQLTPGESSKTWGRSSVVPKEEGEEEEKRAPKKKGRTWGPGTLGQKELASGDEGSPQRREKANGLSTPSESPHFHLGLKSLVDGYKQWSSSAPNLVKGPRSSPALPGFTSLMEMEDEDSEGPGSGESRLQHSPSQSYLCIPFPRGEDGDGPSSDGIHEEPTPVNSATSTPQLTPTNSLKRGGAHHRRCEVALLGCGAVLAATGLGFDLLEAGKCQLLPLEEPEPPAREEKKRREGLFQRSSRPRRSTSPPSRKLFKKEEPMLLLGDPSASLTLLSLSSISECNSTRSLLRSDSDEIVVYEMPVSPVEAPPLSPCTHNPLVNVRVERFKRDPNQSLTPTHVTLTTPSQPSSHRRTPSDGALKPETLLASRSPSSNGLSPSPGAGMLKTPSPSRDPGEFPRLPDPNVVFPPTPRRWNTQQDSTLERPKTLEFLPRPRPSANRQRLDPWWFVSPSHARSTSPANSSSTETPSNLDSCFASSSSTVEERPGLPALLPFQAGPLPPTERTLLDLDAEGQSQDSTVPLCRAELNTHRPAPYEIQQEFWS

[4] = target: T4, panel of 442 kinases (Homo sapiens, UniProt Q13627); conditions: DYRK1A; for remaining activity at 1 µM: read-out: % of control at 1 µM
T4 construct: purchased Ambit Biosciences (scanMAXX KINOMEscan)

[5] = target: T5, panel of 442 kinases (Homo sapiens, UniProt Q8IVW4); conditions: CDKL3; for remaining activity at 1 µM: read-out: % of control at 1 µM
T5 construct: purchased Ambit Biosciences (scanMAXX KINOMEscan)
T5 sequence (Q8IVW4 whole entry): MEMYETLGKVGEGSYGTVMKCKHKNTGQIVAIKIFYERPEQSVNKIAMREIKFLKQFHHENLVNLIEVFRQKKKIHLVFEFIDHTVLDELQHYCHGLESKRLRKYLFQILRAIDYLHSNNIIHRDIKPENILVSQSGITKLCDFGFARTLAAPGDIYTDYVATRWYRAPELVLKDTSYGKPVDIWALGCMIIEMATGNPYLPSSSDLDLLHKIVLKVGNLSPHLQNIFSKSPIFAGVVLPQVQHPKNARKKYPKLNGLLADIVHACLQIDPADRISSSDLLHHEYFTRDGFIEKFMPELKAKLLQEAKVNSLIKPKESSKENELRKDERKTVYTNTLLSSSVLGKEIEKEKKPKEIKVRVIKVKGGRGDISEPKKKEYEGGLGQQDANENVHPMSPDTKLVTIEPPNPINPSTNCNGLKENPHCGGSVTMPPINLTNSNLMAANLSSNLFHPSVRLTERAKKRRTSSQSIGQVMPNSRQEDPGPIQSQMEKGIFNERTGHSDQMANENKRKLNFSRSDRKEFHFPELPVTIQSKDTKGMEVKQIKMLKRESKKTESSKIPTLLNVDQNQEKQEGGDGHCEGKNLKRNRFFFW

[6] = target: T6, panel of 442 kinases (Homo sapiens, UniProt Q8NFD2); conditions: ANKK1; for remaining activity at 1 µM: read-out: % of control at 1 µM
T6 construct: purchased Ambit Biosciences (scanMAXX KINOMEscan)
T6 sequence (Q8NFD2 1-765): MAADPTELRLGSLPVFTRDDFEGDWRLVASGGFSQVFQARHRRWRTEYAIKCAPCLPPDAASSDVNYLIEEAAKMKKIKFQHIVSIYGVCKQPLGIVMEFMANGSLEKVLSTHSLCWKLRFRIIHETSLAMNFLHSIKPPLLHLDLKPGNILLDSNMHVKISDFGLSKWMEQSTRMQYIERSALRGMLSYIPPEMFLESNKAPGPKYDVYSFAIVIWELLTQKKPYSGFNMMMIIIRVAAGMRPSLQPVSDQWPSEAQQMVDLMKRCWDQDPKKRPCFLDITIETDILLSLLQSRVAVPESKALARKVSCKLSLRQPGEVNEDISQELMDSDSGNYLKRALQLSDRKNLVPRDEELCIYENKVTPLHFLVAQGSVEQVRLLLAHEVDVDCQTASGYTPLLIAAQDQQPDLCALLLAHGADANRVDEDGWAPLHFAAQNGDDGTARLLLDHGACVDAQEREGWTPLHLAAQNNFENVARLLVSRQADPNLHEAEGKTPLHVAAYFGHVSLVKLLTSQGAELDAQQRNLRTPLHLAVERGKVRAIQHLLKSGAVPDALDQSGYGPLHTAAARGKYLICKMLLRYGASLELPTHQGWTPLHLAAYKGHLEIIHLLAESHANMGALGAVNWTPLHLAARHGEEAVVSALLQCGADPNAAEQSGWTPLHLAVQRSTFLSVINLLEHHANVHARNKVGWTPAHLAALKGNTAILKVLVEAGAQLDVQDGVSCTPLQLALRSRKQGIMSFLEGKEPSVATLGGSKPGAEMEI

[7] = target: T7, panel of 442 kinases (Homo sapiens, UniProt P36507); conditions: kinase MEK2; for remaining activity at 1 µM: read-out: % of control at 1 µM
T7 construct: purchased Ambit Biosciences (scanMAXX KINOMEscan)
T7 sequence (P36507 whole entry): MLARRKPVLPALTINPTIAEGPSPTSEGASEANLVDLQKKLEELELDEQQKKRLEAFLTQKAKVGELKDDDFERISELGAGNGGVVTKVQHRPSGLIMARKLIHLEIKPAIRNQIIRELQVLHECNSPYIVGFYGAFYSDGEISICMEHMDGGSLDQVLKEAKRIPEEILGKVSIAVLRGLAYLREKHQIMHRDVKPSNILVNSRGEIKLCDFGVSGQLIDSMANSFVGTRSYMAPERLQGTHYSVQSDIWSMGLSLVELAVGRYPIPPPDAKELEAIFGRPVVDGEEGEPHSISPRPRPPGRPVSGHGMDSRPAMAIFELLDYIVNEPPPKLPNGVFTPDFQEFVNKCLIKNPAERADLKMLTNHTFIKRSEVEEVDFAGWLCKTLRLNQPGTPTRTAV

[8] = target: T8, panel of 442 kinases (Homo sapiens, UniProt Q9UHD2); conditions: kinase TBK1; for remaining activity at 1 µM: read-out: TBK1 (% of control at 1 µM)
T8 construct: purchased Ambit Biosciences (scanMAXX KINOMEscan)
T8 sequence (Q9UHD2 1-729): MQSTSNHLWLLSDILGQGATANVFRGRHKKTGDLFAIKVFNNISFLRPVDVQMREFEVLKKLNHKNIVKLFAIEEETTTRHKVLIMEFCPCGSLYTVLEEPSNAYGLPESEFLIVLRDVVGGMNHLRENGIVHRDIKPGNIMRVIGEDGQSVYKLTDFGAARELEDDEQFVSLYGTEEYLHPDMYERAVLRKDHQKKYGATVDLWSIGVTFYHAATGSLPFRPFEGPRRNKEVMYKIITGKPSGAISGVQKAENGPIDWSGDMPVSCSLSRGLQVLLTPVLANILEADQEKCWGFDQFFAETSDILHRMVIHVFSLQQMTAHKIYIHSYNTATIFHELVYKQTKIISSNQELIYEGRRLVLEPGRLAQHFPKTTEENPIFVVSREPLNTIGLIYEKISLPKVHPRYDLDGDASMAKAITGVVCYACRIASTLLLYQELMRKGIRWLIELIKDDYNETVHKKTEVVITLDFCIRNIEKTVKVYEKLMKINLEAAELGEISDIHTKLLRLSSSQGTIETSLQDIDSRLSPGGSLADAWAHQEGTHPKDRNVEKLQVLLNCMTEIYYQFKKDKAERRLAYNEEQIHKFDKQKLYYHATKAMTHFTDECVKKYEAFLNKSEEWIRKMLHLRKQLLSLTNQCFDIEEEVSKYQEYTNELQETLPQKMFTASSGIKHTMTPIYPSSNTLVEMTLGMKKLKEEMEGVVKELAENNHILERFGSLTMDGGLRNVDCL

[9] = 10 µM, read-out: % of control at 10 µM

T1 sequence (P10721 26-976 D816V): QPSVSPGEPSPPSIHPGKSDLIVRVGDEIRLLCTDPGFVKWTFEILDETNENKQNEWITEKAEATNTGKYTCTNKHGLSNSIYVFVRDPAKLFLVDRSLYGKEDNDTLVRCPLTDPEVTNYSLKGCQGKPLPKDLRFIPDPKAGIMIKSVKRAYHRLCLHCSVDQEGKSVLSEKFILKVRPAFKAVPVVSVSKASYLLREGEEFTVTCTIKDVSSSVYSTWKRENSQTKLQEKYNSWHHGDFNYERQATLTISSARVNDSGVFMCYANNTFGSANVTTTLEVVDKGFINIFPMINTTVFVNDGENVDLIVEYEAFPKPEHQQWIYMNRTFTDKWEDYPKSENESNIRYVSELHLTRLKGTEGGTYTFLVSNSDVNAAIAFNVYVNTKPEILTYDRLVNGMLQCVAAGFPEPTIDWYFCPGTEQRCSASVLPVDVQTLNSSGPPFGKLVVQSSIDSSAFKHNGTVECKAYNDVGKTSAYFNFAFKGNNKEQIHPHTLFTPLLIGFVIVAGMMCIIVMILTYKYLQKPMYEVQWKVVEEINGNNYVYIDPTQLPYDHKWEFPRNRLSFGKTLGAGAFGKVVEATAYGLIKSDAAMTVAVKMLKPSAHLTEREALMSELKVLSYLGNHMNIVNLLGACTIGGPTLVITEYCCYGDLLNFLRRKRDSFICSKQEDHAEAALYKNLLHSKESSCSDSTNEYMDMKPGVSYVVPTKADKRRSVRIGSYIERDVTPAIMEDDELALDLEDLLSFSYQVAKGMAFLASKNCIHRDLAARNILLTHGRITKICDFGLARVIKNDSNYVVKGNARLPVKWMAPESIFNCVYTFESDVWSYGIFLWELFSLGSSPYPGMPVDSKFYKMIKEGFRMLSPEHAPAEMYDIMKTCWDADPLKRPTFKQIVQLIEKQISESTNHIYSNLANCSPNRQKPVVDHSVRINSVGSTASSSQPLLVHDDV

Compound: Nc1cc(C(F)(F)F)c(-c2cc(N3CCOCC3)nc(N3CCOCC3)n2)cn1 [Buparlisib]
- remaining activity at 1 µM [1]: 100%
- remaining activity at 10 µM [1, 9]: 100%
- remaining activity at 1 µM [2]: 99%
- remaining activity at 10 µM [2]: 100%
- remaining activity at 1 µM [3]: 92%
- remaining activity at 10 µM [3, 9]: 99%
- remaining activity at 1 µM [4]: 80%
- remaining activity at 10 µM [4, 9]: 51%
- remaining activity at 1 µM [5]: 92%
- remaining activity at 10 µM [5, 9]: 100%
- remaining activity at 1 µM [6]: 91%
- remaining activity at 10 µM [6, 9]: 94%
- remaining activity at 1 µM [7]: 100%
- remaining activity at 10 µM [7, 9]: 100%
- remaining activity at 1 µM [8]: 99%
- remaining activity at 10 µM ([8]; 10 µM, read-out: TBK1 (% of control at 10 µM)): 100%

Compound: Cn1c(=O)n(-c2ccc(C(C)(C)C#N)cc2)c2c3cc(-c4cnc5ccccc5c4)ccc3ncc21 [Dactolisib, 2-methyl-2-[4-(3-methyl-2-oxo-8-quinolin-3-yl-2,3-dihydroimidazo[4,5-c]quinolin-1-yl)-phenyl] propionitrile]
- remaining activity at 1 µM [1]: 59%
- remaining activity at 1 µM [2]: 89%
- remaining activity at 1 µM [3]: 86%
- remaining activity at 1 µM [4]: 100%
- remaining activity at 1 µM [5]: 57%
- remaining activity at 1 µM [6]: 100%
- remaining activity at 1 µM [7]: 73%
- remaining activity at 1 µM [8]: 93%

Compound: COc1ncc(-c2ccc3nccc(-c4ccnnc4)c3c2)cc1NS(=O)(=O)c1ccc(F)cc1F [Omipalisib]
- remaining activity at 1 µM [1]: 86%
- remaining activity at 1 µM [2]: 100%
- remaining activity at 1 µM [3]: 100%
- remaining activity at 1 µM [4]: 100%
- remaining activity at 1 µM [5]: 100%
- remaining activity at 1 µM [6]: 100%
- remaining activity at 1 µM [7]: 99%
- remaining activity at 1 µM [8]: 100%

Compound: CS(=O)(=O)N1CCN(Cc2cc3nc(-c4cccc5[nH]ncc45)nc(N4CCOCC4)c3s2)CC1 [Pictilisib, 2-(1H-indazol-4-yl)-6-(4-methanesulfonyl-piperazin-1-ylmethyl)-4-morpholin-4-yl-t hieno[3,2-d]pyrimidine]
- remaining activity at 1 µM [2]: 100%
- remaining activity at 10 µM [2]: 63%

Compound: FC(F)c1nc2ccccc2n1-c1nc(N2CCOCC2)nc(N2CCOCC2)n1 [ZSTK474, 2-(difluoromethyl)-1-[4,6-di(4-morpholinyl)-1,3,5-triazin-2-yl]-1H-benzimidazole]
- remaining activity at 1 µM [1]: 100%
- remaining activity at 1 µM [2]: 82%
- remaining activity at 1 µM [3]: 99%
- remaining activity at 1 µM [4]: 100%
- remaining activity at 1 µM [5]: 100%
- remaining activity at 1 µM [6]: 100%
- remaining activity at 1 µM [7]: 97%
- remaining activity at 1 µM [8]: 100%
